In this assay the test system is western and northern corn rootworm. The experiment in a line: Field trial of corn rootworm feeding damage to corn roots (Iowa 1-6 rating). The assay is classed as in vivo. The settings on record: Cry3Bb.11231 transgenic corn seeds treated with thiamethoxam (300 or 400 gm AI/100 kg seed) compared with transgenic seeds without pesticide treatment, Iowa 1-6 root rating. The source says:
Field trials for the determination of efficacy of transgenic event Cry3Bb.11231 in corn seed in combination with corn root worm pesticide seed treatments against western and northern corn rootworm.
Field trials can be run in accordance with pertinent protocols and in conformance with USDA notification requirements. The purpose of the trials is to determine the efficacy of transgenic event Cry3Bb.11231 in corn seed in combination with corn root worm seed treatments against western and northern corn root worm.
For each growing site that is selected, the plot design would included the following:
The following seed treatment combinations can be used for each growing area: […]
The determination of damage by corn rootworm can be made according to the following protocol. […] In that system, the root systems of 10 corn plants per plot are recovered and scored using the 1-6 rating scale, where: 1=no injury or only a few minor feeding scars, 2=feeding injury evident, but no roots eaten back to 1½ inches of the plant, 3=at least one root eaten off to within 1½ inches of the plant, but never an entire node of roots destroyed, 4=one node of roots eaten back to within 1½ inches of the plant, 5=two nodes (circles) of roots eaten back to within 1½ inches of the plant, 6=three nodes (circles) of roots eaten back to within 1½ inches of the plant.

Consider `CN1COCN(Cc2cnc(Cl)s2)/C1=N\[N+](=O)[O-]` [thiamethoxam, 3-[(2-chloro-5-thiazolyl)mehthyl]tetrahydro-5-methyl-N-nitro-4H-1,3,5-oxadiazin-4-imine], for which the “resistance to corn rootworm damage” value is on record as “more resistant to corn rootworm damage than the transgenic seeds without such pesticide treatment”.

These data come from patent publication US20030033631A1, “Method for reducing pest damage to corn by treating transgenic corn seeds with thiamethoxam pesticide” (Monsanto Technology, L.L.C., priority 2000, published 2003).
